According to US20250034201A1, “PRODRUGS OF GANAXOLONE” (priority 2022, published 2025):

Tests used:
[1] = Rat liver microsomal stability; assay type: in vitro ADME
Description: (§1) For several compounds only human liver microsomal stability was tested. […] The microsomal assays were carried out with and without the addition of NADPH at a final concentration of 1 mM. For negative control samples, NADPH reagent was not added. […] Note that compounds undergo only Phase I metabolism in liver microsomes.
CLint=the intrinsic hepatic clearance (uL/min/mg), where CLint is equal to 0.693/(t1/2×Cmp)

in vitro [2] = assay type: in vitro ADME, human
Description: as §1

in vitro [3] = conditions: for Human plasma t90: 2 μg/mL, 37° C.; for Observations: stability / GNX production in human plasma / half-life: human, plasma
Description: The plasma stability of exemplary compounds was tested using rat, mice, dog, and human plasma, according to the following protocol. For each test compound, samples at a final concentration of 2 μg/mL were prepared in blank plasma of selected species. All samples were incubated at 37° C. on a 150-RPM orbital shaker, and an aliquot was removed at pre-determined time points (0, 15, 30, 60, and 120 minutes). Samples were precipitated with three volumes of acetonitrile containing propranolol as internal standard, and centrifuged for 10 min at 2000 g before LC/MS/MS analysis of the supernatant solutions.

[4] = human liver microsomes 0.5 mg/mL, with NADPH, compound 0.5 μM, 37° C., read-out: Human Liver Microsomal Stability t1/2
[5] = human liver microsomes 0.5 mg/mL, with NADPH, compound 0.5 μM, read-out: Human Liver Microsomal Stability CLint (uL/min/mg liver) (converted)
[6] = human liver microsomes, no NADPH, compound 0.5 μM

Row | Structure (SMILES) | Comments: production of GNX (ganaxolone) in human liver microsomes (in vitro [2]; human liver microsomes) | half-life (in vitro [2]; [4]) [h] | microsomal CLint (in vitro [2]; [5]) [µL/min/mg] | Human Liver Microsomal Stability no NADPH, % remain 1 h (in vitro [2]; [6]) [%] | also measured
1 | COCCN(C)CC(=O)O[C@]1(C)CC[C@@]2(C)[C@@H](CC[C@@H]3[C@@H]2CC[C@]2(C)[C@@H](C(C)=O)CC[C@@H]32)C1 [Compound 104] | GNX not produced in human or rat | 0.2 | 116 | 98 | Comments: production of GNX (ganaxolone) in rat liver microsomes ([1]; rat liver microsomes): GNX not produced in human or rat; half-life ([1]; rat liver microsomes 0.5 mg/mL, with NADPH, compound 0.5 μM, 37° C., read-out: Rat Liver Microsomal Stability t1/2): 7.41 min; microsomal CLint ([1]; rat liver microsomes 0.5 mg/mL, with NADPH, compound 0.5 μM, read-out: Rat Liver Microsomal Stability CLint (uL/min/mg liver)): 187 µL/min/mg; Rat Liver Microsomal Stability no NADPH, % remain 1 h ([1]; rat liver microsomes, no NADPH, 1 h, compound 0.5 μM): 99%
2 | CC(=O)[C@H]1CC[C@H]2[C@@H]3CC[C@H]4C[C@](C)(OC(=O)COC(=O)CN5CCN(C)CC5)CC[C@]4(C)[C@H]3CC[C@]12C [Compound 208] | In human GNX not produced | 0.617 | 37.4 | 72 | Human plasma t90 (in vitro [3]): 26.6 min; Observations: stability / GNX production in human plasma (in vitro [3]): No GNX produced; half-life (in vitro [3]): 2.95 h
3 | CC(=O)[C@H]1CC[C@H]2[C@@H]3CC[C@H]4C[C@](C)(OC(=O)COC(=O)OCCN(C)C)CC[C@]4(C)[C@H]3CC[C@]12C [Compound 220] | – | 0.197 | 117 | 4 | Human plasma t90 (in vitro [3]): 3.18 min; Observations: stability / GNX production in human plasma (in vitro [3]): In human no GNX; half-life (in vitro [3]): 0.352 h
4 | CC(=O)[C@H]1CC[C@H]2[C@@H]3CC[C@H]4C[C@](C)(OC(=O)CSCCN)CC[C@]4(C)[C@H]3CC[C@]12C [Compound 302] | In human GNX not produced | – | – | – | half-life (in vitro [2]; human, microsomes): 4.13 h; microsomal CLint (in vitro [2]; human, microsomes): 5.59 µL/min/mg; Human Liver Microsomal Stability no NADPH, % remain 1 h (in vitro [2]; human, microsomes): 99%
5 | CC(=O)[C@H]1CC[C@H]2[C@@H]3CC[C@H]4C[C@](C)(OC(=O)CSCCOC(=O)CN5CCOCC5)CC[C@]4(C)[C@H]3CC[C@]12C [Compound 303] | In human GNX not produced | 0.0413 | 599 | 90 | –
6 | CC(=O)[C@H]1CC[C@H]2[C@@H]3CC[C@H]4C[C@](C)(OC(=O)CSC(=N)N)CC[C@]4(C)[C@H]3CC[C@]12C [Compound 304] | In human small amount of GNX produced | 2.88 | 8.03 | 83.8 | –
7 | CC(=O)[C@H]1CC[C@H]2[C@@H]3CC[C@H]4C[C@](C)(OC(=O)CSC(C)(C)C(=O)O)CC[C@]4(C)[C@H]3CC[C@]12C [Compound 305] | In human small amount of GNX produced | 2.85 | 8.12 | 98.8 | –
8 | CC(=O)[C@H]1CC[C@H]2[C@@H]3CC[C@H]4C[C@](C)(OC(=O)CSC(C)(C)C(=O)NCCN(C)C)CC[C@]4(C)[C@H]3CC[C@]12C [Compound 307] | In human no GNX produced | 6.52 | 3.55 | 99 | –
9 | CC(=O)[C@H]1CC[C@H]2[C@@H]3CC[C@H]4C[C@](C)(OC(=O)CSC(C)(C)COC(=O)CN5CCOCC5)CC[C@]4(C)[C@H]3CC[C@]12C [Compound 310] | In human no GNX produced | 0.0483 | 474 | 1 | –
10 | CC(=O)[C@H]1CC[C@H]2[C@@H]3CC[C@H]4C[C@](C)(OC(=O)CCC(=O)O)CC[C@]4(C)[C@H]3CC[C@]12C [Compound 407] | In human no GNX produced | 1.33 | 17.4 | 99 | –
11 | CC(=O)[C@H]1CC[C@H]2[C@@H]3CC[C@H]4C[C@](C)(OC(=O)C5CC5C(=O)O)CC[C@]4(C)[C@H]3CC[C@]12C (some centres unmarked) [Compound 408] | In human no GNX produced | 2.38 | 9.72 | 76 | –
12 | CC(=O)[C@H]1CC[C@H]2[C@@H]3CC[C@H]4C[C@](C)(OC(=O)CCC(=O)OCCN(C)C)CC[C@]4(C)[C@H]3CC[C@]12C [Compound 409] | In human small amount of GNX produced | – | – | – | half-life (in vitro [2]; human, microsomes): 0.213 h; microsomal CLint (in vitro [2]; human, microsomes): 108 µL/min/mg; Human Liver Microsomal Stability no NADPH, % remain 1 h (in vitro [2]; human, microsomes): 7%
13 | CC(=O)[C@H]1CC[C@H]2[C@@H]3CC[C@H]4C[C@](C)(OC(=O)CCC(=O)NCCN(C)C)CC[C@]4(C)[C@H]3CC[C@]12C [Compound 410] | In human no GNX produced | 7.32 | 3.16 | 99 | –
14 | CC(=O)[C@H]1CC[C@H]2[C@@H]3CC[C@H]4C[C@](C)(OC(=O)C5CC5C(=O)NCCN(C)C)CC[C@]4(C)[C@H]3CC[C@]12C (some centres unmarked) [Compound 411] | In human small amount of GNX produced | 7.4 | 3.12 | 99 | –
15 | CC(=O)[C@H]1CC[C@H]2[C@@H]3CC[C@H]4C[C@](C)(OC(=O)CC(C)(C)C(=O)NCCN(C)C)CC[C@]4(C)[C@H]3CC[C@]12C [Compound 412] | In human small amount of GNX produced | 4.55 | 5.07 | 94 | –
16 | CC(=O)[C@H]1CC[C@H]2[C@@H]3CC[C@H]4C[C@](C)(OC(=O)CC(C)(C)C(=O)OCCN(C)C)CC[C@]4(C)[C@H]3CC[C@]12C [Compound 413] | In human no GNX produced | 2.1 | 11 | 89 | –
17 | CC(=O)[C@H]1CC[C@H]2[C@@H]3CC[C@H]4C[C@](C)(OC(=O)C[C@H](N)C(=O)O)CC[C@]4(C)[C@H]3CC[C@]12C [Compound 414] | In human no GNX produced | 2.97 | 7.81 | 82 | –
18 | CC(=O)[C@H]1CC[C@H]2[C@@H]3CC[C@H]4C[C@](C)(OC(=O)CCN5C(=O)CCC5=O)CC[C@]4(C)[C@H]3CC[C@]12C [Compound 415] | In human small amount of GNX produced | 0.137 | 169 | 99 | –
19 | CC(=O)[C@H]1CC[C@H]2[C@@H]3CC[C@H]4C[C@](C)(OC(=O)CC[C@H](N)C(=O)O)CC[C@]4(C)[C@H]3CC[C@]12C [Compound 416] | In human no GNX produced | 4.55 | 5.08 | 99 | –
20 | CC(=O)[C@H]1CC[C@H]2[C@@H]3CC[C@H]4C[C@](C)(OC(=O)CCCN)CC[C@]4(C)[C@H]3CC[C@]12C [Compound 417] | In human no GNX produced | 8.23 | 2.81 | 99 | –
21 | CC(=O)[C@H]1CC[C@H]2[C@@H]3CC[C@H]4C[C@](C)(OC(=O)CCCCN)CC[C@]4(C)[C@H]3CC[C@]12C [Compound 418] | In human no GNX produced | 7.52 | 3.08 | 99 | –
22 | CC(=O)[C@H]1CC[C@H]2[C@@H]3CC[C@H]4C[C@](C)(OC(=O)OCCN(C)C)CC[C@]4(C)[C@H]3CC[C@]12C [Compound 419] | In human small amount of GNX produced | 0.658 | 35.1 | 88 | –
23 | CC(=O)[C@H]1CC[C@H]2[C@@H]3CC[C@H]4C[C@](C)(OC(=O)CC(C)(C)C(=O)O)CC[C@]4(C)[C@H]3CC[C@]12C [Compound 420] | In human no GNX produced | 7.42 | 3.11 | 97.4 | –
